From the supplement of paper PMC10307832

How the values were obtained:
Assay in all cases: relative viability (nuclei count vs DMSO), 5 days (fraction); higher = more cells survive
Omipalisib + Pictilisib = compound: COc1ncc(-c2ccc3nccc(-c4ccnnc4)c3c2)cc1NS(=O)(=O)c1ccc(F)cc1F [Omipalisib] + CS(=O)(=O)N1CCN(Cc2cc3nc(-c4cccc5[nH]ncc45)nc(N4CCOCC4)c3s2)CC1 [Pictilisib] (partner 1 µM)
Summary of the method: (§1)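 For relative viability, nuclei counts in treated wells were divided by those in vehicle wells. Lung cancer cell lines had been pin-tool dosed in 1536-well plates the day after seeding and cultured for 5 days, then fixed and stained in one step (final 0.05% Triton X-100, 1% formaldehyde, 1 ug/ml Hoechst) and imaged at 4×. Doses were one drug alone or a fixed anchor-drug dose plus five library-drug doses (not always all listed) in √10 steps, and values are duplicate-plate medians.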

Omipalisib + Linsitinib = compound: COc1ncc(-c2ccc3nccc(-c4ccnnc4)c3c2)cc1NS(=O)(=O)c1ccc(F)cc1F [Omipalisib] + C[C@]1(O)C[C@@H](c2nc(-c3ccc4ccc(-c5ccccc5)nc4c3)c3c(N)nccn32)C1 [Linsitinib] (partner 1 µM)
Summary of the method: as §1

Omipalisib + Dasatinib = compound: COc1ncc(-c2ccc3nccc(-c4ccnnc4)c3c2)cc1NS(=O)(=O)c1ccc(F)cc1F [Omipalisib] + Cc1nc(Nc2ncc(C(=O)Nc3c(C)cccc3Cl)s2)cc(N2CCN(CCO)CC2)n1 [Dasatinib] (partner 0.075 µM)
Summary of the method: as §1

Omipalisib + Vorinostat = compound: COc1ncc(-c2ccc3nccc(-c4ccnnc4)c3c2)cc1NS(=O)(=O)c1ccc(F)cc1F [Omipalisib] + O=C(CCCCCCC(=O)Nc1ccccc1)NO [Vorinostat] (partner 1 µM)
Summary of the method: as §1

Omipalisib + Decitabine = compound: COc1ncc(-c2ccc3nccc(-c4ccnnc4)c3c2)cc1NS(=O)(=O)c1ccc(F)cc1F [Omipalisib] + Nc1ncn([C@H]2C[C@H](O)[C@@H](CO)O2)c(=O)n1 [Decitabine] (partner 2 µM)
Summary of the method: as §1

Omipalisib + AZD7762 = compound: COc1ncc(-c2ccc3nccc(-c4ccnnc4)c3c2)cc1NS(=O)(=O)c1ccc(F)cc1F [Omipalisib] + NC(=O)Nc1cc(-c2cccc(F)c2)sc1C(=O)N[C@H]1CCCNC1 [AZD7762] (partner 0.2 µM)
Summary of the method: as §1

Cell Line	relative viability (Omipalisib + Pictilisib; first compound 0.0003 µM)	relative viability (Omipalisib + Pictilisib; first compound 0.003 µM)	relative viability (Omipalisib + Pictilisib; first compound 0.03 µM)	relative viability (Omipalisib + Linsitinib; first compound 0.0003 µM)	relative viability (Omipalisib + Linsitinib; first compound 0.003 µM)	relative viability (Omipalisib + Linsitinib; first compound 0.03 µM)	relative viability (Omipalisib + Dasatinib; first compound 0.0003 µM)	relative viability (Omipalisib + Dasatinib; first compound 0.003 µM)	relative viability (Omipalisib + Dasatinib; first compound 0.03 µM)	relative viability (Omipalisib + Vorinostat; first compound 0.0003 µM)	relative viability (Omipalisib + Vorinostat; first compound 0.003 µM)	relative viability (Omipalisib + Vorinostat; first compound 0.03 µM)	relative viability (Omipalisib + Decitabine; first compound 0.0003 µM)	relative viability (Omipalisib + Decitabine; first compound 0.003 µM)	relative viability (Omipalisib + Decitabine; first compound 0.03 µM)	relative viability (Omipalisib + AZD7762; first compound 0.0003 µM)	relative viability (Omipalisib + AZD7762; first compound 0.003 µM)	relative viability (Omipalisib + AZD7762; first compound 0.03 µM)
NCI-H2228	0.41	0.265	0.407	0.724	0.282	0.211	0.43	0.275	0.133	0.75	0.498	0.162	–	–	–	–	–	–
SK-LU-1	0.685	0.504	0.511	1.03	1	0.679	0.175	0.121	0.109	0.758	0.561	0.535	0.633	0.548	0.494	–	–	–
CAL-12T	0.579	0.524	0.385	0.75	0.822	0.513	0.53	0.241	0.0952	0.666	0.386	0.34	–	–	–	0.705	0.906	0.615
SW 900	–	–	–	–	–	–	0.568	0.293	0.211	0.523	0.484	0.316	0.386	0.344	0.392	0.748	0.381	0.342
HCC-44	0.579	0.464	0.441	0.658	0.457	0.282	–	–	–	1.12	1.18	0.559	0.95	0.914	0.787	1	1.13	1.07
NCI-H2342	–	–	–	–	–	–	0.298	0.294	0.243	0.678	0.536	0.499	0.589	0.479	0.408	0.47	0.434	0.383
NCI-H2170	0.3	0.137	0.278	–	–	–	0.517	0.426	0.453	0.716	0.51	0.418	0.446	0.339	0.29	0.684	0.376	0.375
NCI-H661	0.567	0.37	0.365	0.389	0.439	0.234	0.822	0.573	0.312	0.78	0.782	0.785	0.522	0.453	0.422	–	–	–
UMC-11	0.702	0.425	0.67	0.953	0.838	0.694	0.445	0.455	0.422	0.416	0.281	0.264	0.491	0.397	0.527	–	–	–
NCI-H1650	0.401	0.556	0.564	–	–	–	0.326	0.237	0.189	0.501	0.287	0.379	0.272	0.395	0.42	–	–	–
NCI-H2009	0.752	0.797	0.52	1.13	1.18	0.946	0.272	0.215	0.157	0.674	0.689	0.573	0.355	0.389	0.324	–	–	–
